Data reported in patent publication US10112954B2, “Bicyclic heteroaryl derivatives having inhibitory activity for protein kinase” (HANMI PHARM. CO., LTD., priority 2010, dated 2018).

The compounds below were run against T1, FGFR3 (Homo sapiens, UniProt P22607) (assay: Inhibition of FGFR3 kinase (fluorescence polarization kinase assay)). Details: Table 2, class symbols; read-out: FGFR3 IC50.
T1 construct: purchased Upstate Company
Format: biochemical
Protocol: (§1) Inhibition activities of kinases of the inventive compounds (test compounds) prepared in the Examples were assessed and represented as IC50 values.
(§2) Kinases used in Test Examples 1 to 3 were purchased from Upstate Company.
(§3) 100 mM HEPES (pH 7.4), 25 mM MgCl2, 10 mM MnCl2 and 250 μM Na3VO4 were mixed to prepare a kinase buffer. Each of kinases to be measured was diluted to a concentration of 25˜300 ng per one reaction according to its activity with the kinase buffer. Also, each of the test compounds was serially diluted to a concentration starting from 100 nM up to 0.1 nM with the kinase buffer. 10 μl of the serially diluted solution of each of the test compounds and 10 μl of the diluted kinase were added to each well of a 96-well microplate, and the plate was incubated at room temperature for 10 mins. 10 μl of a substrate and 10 μl of ATP were successively added thereto to initiate a kinase reaction, and the resulting mixture was incubated at room temperature for 1 hour. The ATP was used in a form of a solution diluted to a concentration determined according to a kinase's Km value with distilled water. 10˜100 ng/mL poly(Glu, Tyr) 4:1 (Sigma) was used as the substrate. 10 μl of 6 mM EDTA was added to each well and stirred for 5 mins to terminate the kinase reaction. For a measurement of phosphorylation degree, 50 μl of a solution containing anti-phosphotyrosine antibody and fluorescein-labeled phosphopeptide was added to the reaction mixture, followed by incubating for 30 mins. The FP (fluorescence polarization) value of each well was determined with a Victor™ D fluorescence meter (Perkin Elmer Lifesciences).
(§4) IC50, the concentration at which 50% inhibition occurs, was evaluated based on the difference between the final concentration of the test cells and the initial concentration of the cells incubated in a well not-treated with the test compound which was regarded as 100%. IC50 values of the test compounds on the FGFR kinase were shown in Table 2, and those of the test compound obtained in Example 177 on various kinases, in Table 3.

T1 sequence (P22607 23-806, species assumed): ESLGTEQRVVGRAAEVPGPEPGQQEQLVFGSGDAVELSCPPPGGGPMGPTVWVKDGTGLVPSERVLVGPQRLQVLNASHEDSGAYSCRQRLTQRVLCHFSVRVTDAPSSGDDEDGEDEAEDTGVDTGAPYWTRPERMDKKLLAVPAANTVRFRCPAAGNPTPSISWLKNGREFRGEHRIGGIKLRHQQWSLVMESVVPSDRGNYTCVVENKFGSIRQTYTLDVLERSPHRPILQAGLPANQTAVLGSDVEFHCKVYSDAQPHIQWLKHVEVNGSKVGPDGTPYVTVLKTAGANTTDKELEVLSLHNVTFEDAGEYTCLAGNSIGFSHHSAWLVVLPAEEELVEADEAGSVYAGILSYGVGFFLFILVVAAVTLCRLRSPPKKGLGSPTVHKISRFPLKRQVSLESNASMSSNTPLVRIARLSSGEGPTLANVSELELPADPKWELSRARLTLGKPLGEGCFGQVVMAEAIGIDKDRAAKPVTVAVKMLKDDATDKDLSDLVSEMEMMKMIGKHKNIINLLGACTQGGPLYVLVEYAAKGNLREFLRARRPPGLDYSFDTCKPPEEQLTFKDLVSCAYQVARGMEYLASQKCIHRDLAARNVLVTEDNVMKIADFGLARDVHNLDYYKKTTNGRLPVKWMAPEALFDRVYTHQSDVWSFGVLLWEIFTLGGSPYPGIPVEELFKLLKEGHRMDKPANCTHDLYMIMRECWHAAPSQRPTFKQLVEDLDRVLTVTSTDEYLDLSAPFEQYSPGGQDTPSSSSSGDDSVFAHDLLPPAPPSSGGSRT

`COc1cc(OC)c(Cl)c(/C=C/c2csc3c(N)ncnc23)c1Cl` [Example 76, 7-(2,6-dichloro-3,5-dimethoxystyryl) thieno[3,2-d]pyrimidine-4-amine] and `COc1cc(OC)c(Cl)c(NC(=O)c2csc3c(NS(C)(=O)=O)ncnc23)c1Cl` [Example 206, N-(2,6-dichloro-3,5-dimethoxyphenyl)-4-(methylsulfonamido) thieno[3,2-d]pyrimidine-7-carboxamide] fall in the same range of IC50: 1000 to 5000 nM for the first, 1000 to 5000 nM for the second.

`COc1cc(NC(=O)c2csc3c(N)ncnc23)c2ccoc2c1` [Example 113] and `COc1cc(NC(=O)c2csc3c(Nc4ccccc4)ncnc23)c2ccoc2c1` [Example 114] fall in the same range of IC50: 1000 to 5000 nM for the first, 1000 to 5000 nM for the second.

`CCN(CC)CCCCNc1ncnc2c(C(=O)Nc3c(Cl)c(OC)c(Br)c(OC)c3Cl)csc12` [Example 157, N-(4-bromo-2,6-dichloro-3,5-dimethoxyphenyl)-4-(4-(diethylamino)butyl-amino)thieno[3,2-d]pyrimidine-7-carboxamide] and `COc1c(Cl)c(NC(=O)c2csc3c(Nc4ccc(F)c(Cl)c4)ncnc23)c(Cl)c(OC)c1Br` [Example 287, N-(4-bromo-2,6-dichloro-3,5-dimethoxyphenyl)-4-(3-chloro-4-fluorophenylamino) thieno[3,2-d]pyrimidine-7-carboxamide] fall in the same range of IC50: 1000 to 5000 nM for the first, 1000 to 5000 nM for the second.

First: COc1cc(OC)c(Cl)c(NC(=O)c2csc3c(NC4CC4)ncnc23)c1Cl [Example 168, 4-(cyclopropylamino)-N-(2,6-dichloro-3,5-dimethoxyphenyl) thieno[3,2-d]pyrimidine-7-carboxamide]
Second: COc1cc(OC)c(Cl)c(NC(=O)c2csc3c(Nc4ccc(C)cn4)ncnc23)c1Cl [Example 178, N-(2,6-dichloro-3,5-dimethoxyphenyl)-4-(5-methylpyridin-2-ylamino)thieno[3,2-d]pyrimidine-7-carboxamide]
The IC50 of the first is lower: 1 to 100 nM for the first, 100 to 500 nM for the second.

Compared with `CCN1CCN(CCCNc2ncnc3c(C(=O)Nc4c(Cl)c(OC)cc(OC)c4Cl)csc23)CC1` [Example 171, N-(2,6-dichloro-3,5-dimethoxyphenyl)-4-(3-(4-ethylpiperazin-1-yl)propylamino) thieno[3,2-d]pyrimidine-7-carboxamide], `CCN1CCN(Cc2ccc(Nc3ncnc4c(C(=O)Nc5c(Cl)c(OC)cc(OC)c5Cl)csc34)nc2)CC1` [Example 179, N-(2,6-dichloro-3,5-dimethoxyphenyl)-4-(5-((4-ethylpiperazin-1-yl)methyl)pyridin-2-ylamino)thieno[3,2-d]pyrimidine-7-carboxamide] is lower in IC50: 1000 to 5000 nM for the first, 1 to 100 nM for the second. The second is the more potent here.

First: CCN1CCN(c2cc(Nc3ncnc4c(C(=O)Nc5c(Cl)c(OC)cc(OC)c5Cl)csc34)ncn2)CC1 [Example 182, N-(2,6-dichloro-3,5-dimethoxyphenyl)-4-(6-(4-ethylpiperazin-1-yl)pyrimidin-4-ylamino)thieno[3,2-d]pyrimidine-7-carboxamide]
Second: CCN1CCN(c2cccc(Nc3ncnc4c(C(=O)Nc5c(Cl)c(OC)cc(OC)c5Cl)csc34)c2)CC1 [Example 201, N-(2,6-dichloro-3,5-dimethoxyphenyl)-4-(3-(4-ethylpiperazin-1-yl)phenylamino) thieno[3,2-d]pyrimidine-7-carboxamide]
The IC50 of the first is lower: 1 to 100 nM for the first, 100 to 500 nM for the second. The first is the more potent here.

Compared with `CCN(CC)CCOc1ccc(Nc2ncnc3c(C(=O)Nc4c(Cl)c(OC)cc(OC)c4Cl)csc23)cc1` [Example 196, N-(2,6-dichloro-3,5-dimethoxyphenyl)-4-(4-(2-(diethylamino)ethoxy)phenylamino) thieno[3,2-d]pyrimidine-7-carboxamide], `CCN(CC)Cc1cccc(Nc2ncnc3c(C(=O)Nc4c(Cl)c(OC)cc(OC)c4Cl)csc23)n1` [Example 273, N-(2,6-dichloro-3,5-dimethoxyphenyl)-4-(6-((diethylamino)methyl)pyridin-2-ylamino)thieno[3,2-d]pyrimidine-7-carboxamide] is higher in IC50: 500 to 1000 nM for the first, 1000 to 5000 nM for the second. The first is the more potent here.

First: COc1cc(OC)c(Cl)c(NC(=O)c2csc3c(Nc4ccc(N5CCC(N6CCCC6)CC5)cc4)ncnc23)c1Cl [Example 202, N-(2,6-dichloro-3,5-dimethoxyphenyl)-4-(4-(4-(pyrrolidin-1-yl)piperidin-1-yl)phenylamino) thieno[3,2-d]pyrimidine-7-carboxamide]
Second: CCN1CCN(c2ccc(C(=O)Nc3ncnc4c(C(=O)Nc5c(Cl)c(OC)cc(OC)c5Cl)csc34)cc2)CC1 [Example 204, N-(2,6-dichloro-3,5-dimethoxyphenyl)-4-(4-(4-ethylpiperazin-1-yl)benzamido)thieno[3,2-d]pyrimidine-7-carboxamide]
The IC50 of the first is lower: 1 to 100 nM for the first, 100 to 500 nM for the second. The first is the more potent here.

Compared with `CCN1CCN(c2ccc(C(=O)Nc3ncnc4c(C(=O)Nc5c(Cl)c(OC)c(Br)c(OC)c5Cl)csc34)cc2)CC1` [Example 203, N-(4-bromo-2,6-dichloro-3,5-dimethoxyphenyl)-4-(4-(4-ethylpiperazin-1-yl)benzamido)thieno[3,2-d]pyrimidine-7-carboxamide], `COc1cc(OC)c(Cl)c(NC(=O)c2csc3c(Nc4ccc(C(=O)NN5CCN(C)CC5)cn4)ncnc23)c1Cl` [Example 268, N-(2,6-dichloro-3,5-dimethoxyphenyl)-4-(5-(4-methylpiperazin-1-ylcarbamoyl)pyridin-2-ylamino)thieno[3,2-d]pyrimidine-7-carboxamide] is lower in IC50: 1000 to 5000 nM for the first, 1 to 100 nM for the second.

`COc1cc(OC)c(Cl)c(NC(=O)c2csc3c(Nc4cc(NCCN5CCOCC5)ncn4)ncnc23)c1Cl` [Example 208, N-(2,6-dichloro-3,5-dimethoxyphenyl)-4-(6-(2-morpholinoethyl-amino)pyrimidin-4-ylamino)thieno[3,2-d]pyrimidine-7-carboxamide] and `COc1cc(OC)c(Cl)c(NC(=O)c2csc3c(Nc4ccc(CC(=O)N5CCOCC5)cn4)ncnc23)c1Cl` [Example 257, N-(2,6-dichloro-3,5-dimethoxyphenyl)-4-(5-(2-morpholino-2-oxoethyl)pyridin-2-ylamino)thieno[3,2-d]pyrimidine-7-carboxamide] fall in the same range of IC50: 1 to 100 nM for the first, 1 to 100 nM for the second.

First: COc1cc(OC)c(Cl)c(NC(=O)c2csc3c(Nc4cc(OCCN(C)C)ncn4)ncnc23)c1Cl [Example 209, N-(2,6-dichloro-3,5-dimethoxyphenyl)-4-(6-(2-(dimethylamino)eth-oxy)pyrimidin-4-ylamino)thieno[3,2-d]pyrimidine-7-carboxamide]
Second: COc1cc(OC)c(Cl)c(NC(=O)c2csc3c(Nc4cc(C)ccn4)ncnc23)c1Cl [Example 270, N-(2,6-dichloro-3,5-dimethoxyphenyl)-4-(4-methylpyridin-2-ylamino)thieno[3,2-d]pyrimidine-7-carboxamide]
The IC50 of the first is higher: 100 to 500 nM for the first, 1 to 100 nM for the second. The second is the more potent here.

`COc1cc(OC)c(Cl)c(NC(=O)c2csc3c(Nc4ccc(C(=O)N5CCOCC5)cn4)ncnc23)c1Cl` [Example 255, N-(2,6-dichloro-3,5-dimethoxyphenyl)-4-(5-(morpholine-4-carbonyl)pyridin-2-ylamino)thieno[3,2-d]pyrimidine-7-carboxamide] and `COc1cc(OC)c(Cl)c(NC(=O)c2csc3c(Nc4ccc(C(N)=O)cn4)ncnc23)c1Cl` [Example 274, 4-(5-carbamoylpyridin-2-ylamino)-N-(2,6-dichloro-3,5-dimethoxyphenyl) thieno[3,2-d]pyrimidine-7-carboxamide] fall in the same range of IC50: 1 to 100 nM for the first, 1 to 100 nM for the second.

Compared with `COc1cc(OC)c(Cl)c(NC(=O)c2csc3c(Nc4ccc(CN5CCCC(C(F)(F)F)C5)cn4)ncnc23)c1Cl` (centres unmarked) [Example 259, N-(2,6-dichloro-3,5-dimethoxyphenyl)-4-(5-((3-(trifluoromethyl)piperidin-1-yl)methyl)pyridin-2-ylamino)thieno[3,2-d]pyrimidine-7-carboxamide], `COc1cc(OC)c(Cl)c(NC(=O)c2csc3c(Nc4ccc(CN5CCNC(=O)C5)cn4)ncnc23)c1Cl` [Example 263, N-(2,6-dichloro-3,5-dimethoxyphenyl)-4-(5-((3-oxopiperazin-1-yl)methyl)pyridin-2-ylamino)thieno[3,2-d]pyrimidine-7-carboxamide] is lower in IC50: 1000 to 5000 nM for the first, 1 to 100 nM for the second.

`COc1cc(OC)c(Cl)c(NC(=O)c2csc3c(Nc4cc(CN5CCSC5)ccn4)ncnc23)c1Cl` [Example 291, N-(2,6-dichloro-3,5-dimethoxyphenyl)-4-(4-(thiazolidin-3-ylmethyl)pyridin-2-ylamino)thieno[3,2-d]pyrimidine-7-carboxamide] and `CCN(CC)C(=O)Cc1ccnc(Nc2ncnc3c(C(=O)Nc4c(Cl)c(OC)cc(OC)c4Cl)csc23)c1` [Example 292, N-(2,6-dichloro-3,5-dimethoxyphenyl)-4-(4-(2-(diethylamino)-2-oxoethyl)pyridin-2-ylamino)thieno[3,2-d]pyrimidine-7-carboxamide] fall in the same range of IC50: 1 to 100 nM for the first, 1 to 100 nM for the second.

The compounds below were run against T2, FGFR1 (Homo sapiens, UniProt P11362) (assay: Inhibition of FGFR1 kinase (fluorescence polarization kinase assay)). Details: Table 2, class symbols; read-out: FGFR1 IC50.
T2 construct: purchased Upstate Company
Format: biochemical
Protocol: as §1, §2, §3, §4

T2 sequence (P11362 22-822, species assumed): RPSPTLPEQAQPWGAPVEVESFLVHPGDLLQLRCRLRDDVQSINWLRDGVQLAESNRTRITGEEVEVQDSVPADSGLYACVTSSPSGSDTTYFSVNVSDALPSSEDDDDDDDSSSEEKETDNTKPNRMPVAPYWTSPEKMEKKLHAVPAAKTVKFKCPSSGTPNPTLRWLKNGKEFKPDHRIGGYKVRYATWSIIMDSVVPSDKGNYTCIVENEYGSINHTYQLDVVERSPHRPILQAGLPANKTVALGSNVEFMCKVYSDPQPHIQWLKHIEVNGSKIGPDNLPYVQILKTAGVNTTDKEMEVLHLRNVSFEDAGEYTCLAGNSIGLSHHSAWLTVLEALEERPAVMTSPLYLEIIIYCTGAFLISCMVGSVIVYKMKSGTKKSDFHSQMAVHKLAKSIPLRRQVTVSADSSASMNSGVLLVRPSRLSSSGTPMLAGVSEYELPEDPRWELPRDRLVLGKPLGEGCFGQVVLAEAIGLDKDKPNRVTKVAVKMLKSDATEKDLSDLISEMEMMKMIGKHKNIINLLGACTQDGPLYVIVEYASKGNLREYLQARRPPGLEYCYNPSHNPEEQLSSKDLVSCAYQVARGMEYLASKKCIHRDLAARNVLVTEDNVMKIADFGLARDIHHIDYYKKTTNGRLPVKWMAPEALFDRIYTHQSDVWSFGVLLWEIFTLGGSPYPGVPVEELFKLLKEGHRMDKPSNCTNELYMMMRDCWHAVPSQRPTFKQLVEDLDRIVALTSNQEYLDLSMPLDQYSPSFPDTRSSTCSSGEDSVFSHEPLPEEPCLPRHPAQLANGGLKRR

First: CCN1CCN(Cc2ccc(Nc3ncnc4c(C(=O)Nc5c(Cl)c(OC)cc(OC)c5Cl)csc34)nc2)CC1 [Example 179, N-(2,6-dichloro-3,5-dimethoxyphenyl)-4-(5-((4-ethylpiperazin-1-yl)methyl)pyridin-2-ylamino)thieno[3,2-d]pyrimidine-7-carboxamide]
Second: CCN1CCN(c2cccc(Nc3ncnc4c(C(=O)Nc5c(Cl)c(OC)cc(OC)c5Cl)csc34)c2)CC1 [Example 201, N-(2,6-dichloro-3,5-dimethoxyphenyl)-4-(3-(4-ethylpiperazin-1-yl)phenylamino) thieno[3,2-d]pyrimidine-7-carboxamide]
The IC50 of the first is lower: 1 to 100 nM for the first, 100 to 500 nM for the second. The first is the more potent here.

`CCN(CC)CCOc1ccc(Nc2ncnc3c(C(=O)Nc4c(Cl)c(OC)cc(OC)c4Cl)csc23)cc1` [Example 196, N-(2,6-dichloro-3,5-dimethoxyphenyl)-4-(4-(2-(diethylamino)ethoxy)phenylamino) thieno[3,2-d]pyrimidine-7-carboxamide] and `COc1cc(OC)c(Cl)c(NC(=O)c2csc3c(Nc4ccc(N5CCC(N6CCCC6)CC5)cc4)ncnc23)c1Cl` [Example 202, N-(2,6-dichloro-3,5-dimethoxyphenyl)-4-(4-(4-(pyrrolidin-1-yl)piperidin-1-yl)phenylamino) thieno[3,2-d]pyrimidine-7-carboxamide] fall in the same range of IC50: 100 to 500 nM for the first, 100 to 500 nM for the second.
